Results: US8889680B2, “Treatment or prevention of fungal infections with PDK1 inhibitors” (priority 2010, dated 2014)

Legend:
[1] = test system: fluid-phase endocytosis in S. cerevisiae; test: Lucifer yellow (LY) endocytosis assay; format: cell-based; details: sub-lethal KP-372-1, 1 hour pre-treatment, 1 hour time course
Protocol: LY uptake assays were performed as described previously (Dulic et al., Methods Enzymol. 194:697-710 (1991)) using LY obtained from Sigma (St. Louis, Mo.). […] Cells were then exposed to LY and aliquots were removed at 15 minute intervals. Endocytosis was stopped by the addition of sodium azide/succinate and the percentage of cells with vacuolar LY staining was determined by fluorescence microscopy.
Pkh kinases are also important for endocytosis in yeast. […] LY binds to the plasma membrane and is transported to the vacuole (yeast lysosomal homolog) in PKH-dependent fashion.

[2] = test system: C. albicans clinical reference strain SC5314; test: Adenylate kinase (AK) release assay of yeast cell lysis; format: cell-based, Candida albicans; design: dose or concentration left out as unconfirmed; details: extracellular AK activity relative to DMSO-treated cells
Protocol: AK assays were performed according to a recently published protocol (Didone et al., Nat. Protocol. 5:1107-14 (2010)) using the 96-well plate version using the Toxi-Light Assay kit (Lonza; Basel, Switzerland). Luminescence was measured using a SpectraMax plate reader (Molecular Devices; Sunnyvale, Calif.). […] To identify PKIs that disrupt yeast cell wall integrity, a four-part screening strategy as outlined in FIG. 1A was designed. The primary screen in the approach detects molecules that cause yeast cells to lyse, a characteristic phenotype of yeast cell wall damage, by use of an assay that detects the release of adenylate kinase (AK) to the growth medium as a reporter of yeast cell lysis. […] Last, to select PKIs specific for the CWI signaling pathway, the set of hits were tested for their ability to block the activation of a transcriptional reporter of the CWI-signaling pathway. To rapidly survey a sample of well-characterized PKIs, the commercially available InhibitorSelect collection, a library of 80 PKIs with diverse mechanistic and structural characteristics, was utilized. C. albicans clinical reference strain SC5314 was screened against the InhibitorSelect library for molecules that caused a release of AK into the growth medium.

[3] = test system: S. cerevisiae pkh and ypk mutants; test: Disk diffusion assay, S. cerevisiae mutants; format: cell-based
Protocol: (§1) Plates were incubated at 30° C. for 3 days prior to photography.
(§2) The antifungal activity of protein kinase inhibitors was determined using the Clinical and Laboratory Science Institute microdilution protocol M-27A2. Biofilm antifungal activity was determined using the protocol of Pierce et al. and is reported as MIC50S (Pierce et al., Nat. Protoc. 3:1494-1500 (2008)). Disk diffusion assays were performed as described previously (Roelants et al., Microbiology 150:3289-304 (2004)).
Heterozygous diploid yeast mutants lacking one allele of the gene encoding a putative drug target are frequently hypersensitive to the effects of that drug. This is called drug-induced haploinsufficiency. Similarly, if a drug targets the products of two redundant genes, then deletion of one of those genes in a haploid yeast strain will hypersensitize the strain to that drug. […] Pkh1/2 phosphorylates two other AGC protein kinases involved in yeast cell wall integrity, Ypk1&2.

[4] = test system: C. neoformans PKH2-01 and PKH2-02 deletion mutants; test: Disk diffusion assay, C. neoformans mutants; format: cell-based, Cryptococcus neoformans; details: 30° C.
Protocol: as §1, §2

C. neoformans = test: Antifungal susceptibility (microdilution MIC), C. neoformans; format: cell-based, Cryptococcus neoformans
Protocol: as §2
(§3) (FIG. 3A). […] Since the echinocandin class of cell wall-targeted 1,3-β-glucan synthase inhibitors is not active against C. neoformans, this represents one of the few cell wall-targeted molecules with activity against this important pathogen.

[5] = test system: CWI pathway reporter Rlm1-lacZ; test: β-Galactosidase CWI pathway reporter assay (Rlm1-lacZ); format: cell-based; details: sub-inhibitory concentrations (1/2 MIC), S. cerevisiae
Protocol: (§4) Bars indicate mean fold change in Miller units of β-galactosidase activity relative to logarithmic phase cells without calcofluor or PKI. Error bars indicate standard deviation of three independent trials performed in triplicate. […] The percentage of cells with PI uptake was determined by fluorescence.
Logarithmic phase S. cerevisiae (BY4741) cells harboring the pRLM1-lacZ plasmid were transferred to a 96-well plate, and treated with Calcofluor white ([…])+/−protein kinase inhibitor at sub-inhibitory concentrations (1/2MIC). The cells were incubated at room temperature for 5 hours and processed for β-galactosidase activity using the ThermoScientific Yeast β-galactosidase kit according to the manufacturer's instructions (Pierce; Rockford, Ill.). β-galactosidase activity was determined by measuring OD420 using a SpectraMax Plate reader (Molecular Devices) and expressed as fold change in Miller units (nmole/mg/min) relative to untreated cells. Each experiment was performed in duplicate with three independent isolates.
The novel, antifungal PKIs identified in the primary screen were evaluated for their ability to block CWI pathway signaling using a reporter construct that contains two copies of the consensus binding site for the CWI-pathway-regulated transcription factor Rlm1 fused to the β-galactosidase gene (Jung et al., Mol. Microbiol. 46:781-9 (2002)). […]

C. albicans cells = test: Propidium iodide uptake; format: cell-based, Candida albicans; details: KP-372-1 at MIC, 2 hours
Protocol: as §4
A hallmark phenotype of mutations and drugs that interfere with CWI signaling is that their effects can be suppressed by the addition of osmotic support such as 1M soribitol to the culture medium. By equalizing the osmotic gradient across the plasma membrane, cell integrity is less dependent upon an intact cell wall.

[6] = test system: eisosomes in S. cerevisiae cells; test: Eisosome pattern by fluorescence microscopy (Pil1-GFP); format: cell-based; details: KP-372-1 (1/2 MIC), within one hour of treatment, versus DMSO
Protocol: Light and fluorescence microscopy was performed using a Nikon ES80 epi-fluorescence microscope equipped with a CoolSnap CCD camera. Images were collected using NIS-Elements Software and processed in PhotoShop. All images were collected with identical exposure settings and equally processed with respect to tone and contrast.
The micrographs of the KP-372-1-treated cells closely match those previously reported (Luo et al., J. Biol. Chem. 283:10433-44 (2008)) and, consequently, support a model in which Pil1 phosphorylation is required for eisosome assembly/stabilization.

C. glabrata = test: Antifungal susceptibility (microdilution MIC), C. glabrata; format: cell-based, Candida glabrata
Protocol: as §2, §3

[7] = test system: leukemic and glioblastoma cells; details: cited from earlier work
human protein kinases = details: large panel of human protein kinases; cited from earlier work

For `O=C1c2ccccc2-c2nc3nnnn3nc21.O=C1c2ccccc2-c2nn3nnnc3nc21` [KP-372-1], the “Lucifer yellow uptake (vacuolar localization)” value [1] was “uptake is inhibited at early time points”, the “Fold increase in AK release” value [2] was 4 Fold and the “zone of inhibition versus wild type” value ([3]; S. cerevisiae pkh2D mutant, compared with wild type or pkh1D) was “larger zone of inhibition”. The “sensitivity versus wild type” value ([3]; S. cerevisiae ypk1D and ypk2D mutants) was “as sensitive to KP-372-1 as wild type”, the “sensitivity versus wild type” value ([4]; C. neoformans PKH2-01 mutant) was “slightly more sensitive” and the “sensitivity versus wild type” value ([4]; C. neoformans PKH2-02 mutant) was “significantly more sensitive”. The “antifungal activity (in words)” value (C. neoformans) was “highly active”, the “Rlm1-lacZ reporter activity induced by Calcofluor white” value [5] was “completely abolished reporter activity” and the “cells stained by propidium iodide relative to YPD” value (C. albicans cells; 1M sorbitol-supplemented YPD) was “five-fold fewer cells were stained”. For the same compound, the “percentage of cells stained by propidium iodide” value (C. albicans cells; 37° C., YPD) was 36%, the “number of peripheral eisosomes” value [6] was “dramatically decreased” and the “antifungal activity (in words)” value (C. glabrata) was “highly active”. The “activity against leukemic and glioblastoma cells” value [7] was “potent activity” and the “selectivity for a limited number of human kinases” value (human protein kinases) was “at least 10 fold”.
